The values below come from patent publication US12024506B2, “Compounds” (Oxford University Innovation Limited, priority 2018, dated 2024).

The subject of assay [1] is H358 cells (ATCC CRL-5807). As to the kind of experiment: Cell viability assay 1 (CellTiter-Glo), H358 cells. The class given is cell-based. Conditions: Homo sapiens, NCI-H358, 48 h, first value of the cell, read-out: Cell Viability H358 (concentration that decreases cell viability by 50%). The method in brief: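 H358 cells were grown in RPMI-1640 with 10% FCS and 2 mM L-glutamine, plated at 5000 cells/well and allowed to adhere overnight. Compound was added in 0.5% DMSO final for 48 h at 37° C. Viability was read by CellTiter-Glo luminescence, with the 50% viability-reducing concentration derived from dose-response curves.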

The test system of assay [2] is DLD1 cells (ATCC CCL-221). As to the kind of experiment: Cell viability assay 1 (CellTiter-Glo), DLD1 cells. Conditions: Homo sapiens, DLD-1 cells, 48 h, second value of the cell, read-out: Cell Viability DLD-1 (concentration that decreases cell viability by 50%). The class given is cell-based. The method in brief:
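DLD1 cells grown in RPMI-1640 with 10% FCS, 2 mM L-glutamine, 37 °C, 5% CO2, plated overnight then exposed to compound (0.5% DMSO) for 48 h. Viability by CellTiter-Glo luminescence; value is concentration reducing viability by 50% from dose-response curves.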

The target in assay [3] is T1, GST-human KRas166 (G12V) GPPNHP (Homo sapiens, UniProt P01116, G12V).
T1 construct: made in house; host or cells: E. coli C41(DE3)
Nature of the assay: KRas small-molecule screening by SPR (Biacore T200). It is filed as binding. As to conditions: compound 100 uM, 5% DMSO buffer; immobilised GST-KRas166 (G12V) GPPNHP. The method in brief: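 Biacore T200 screen: compounds at 100 uM final in 5% DMSO buffer (100 mM NaCl, 5 mM MgCl2) over GPPNHP-bound GST-KRas166 G12V captured by anti-GST antibody (10,000–15,000 RU) versus GST-only channel. Expected 1:1 Rmax 63 RU; DMSO solvent correction applied.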

For the molecule `COc1nc(-c2cccc3c2OCCO3)ccc1Nc1cccc(C(=O)NCC2CNC(=O)C2)c1` (stereo not drawn) [Example 166, 3-[6-(2,3-Dihydro-benzo[1,4]dioxin-5-yl)-2-methoxy-pyridin-3-ylamino]-N-(5-oxo-pyrrolidin-3-ylmethyl)-benzamide], the IC50 was found to be 20.5 µM in assay [1] and 8.3 µM in assay [2]. For the same molecule, the “SPR Response Units” value in assay [3] is given as 133 Response Units.
Taken in the same sequence, the figures for `COc1nc(-c2cccc3c2OCCO3)ccc1Nc1cccc(C(=O)NCc2cc[nH]c(=O)c2)c1` [Example 165, 3-[6-(2,3-Dihydro-benzo[1,4]dioxin-5-yl)-2-methoxy-pyridin-3-ylamino]-N-(2-oxo-1,2-dihydro-pyridin-4-ylmethyl)-benzamide] were 18.3 µM, 11.1 µM and 114 Response Units.
Taken in the same sequence, the figures for `COc1nc(-c2cccc3c2OCCO3)ccc1Nc1ccc(CNCC2CCN(C)CC2)cc1` [Example 186, [6-(2,3-Dihydro-benzo[1,4]dioxin-5-yl)-2-methoxy-pyridin-3-yl]-(4-{[(1-methyl-piperidin-4-ylmethyl)-amino]-methyl}-phenyl)-amine] were 2.4 µM, 0.3 µM and 636 Response Units.
Taken in the same sequence, the figures for `COc1cccc(-c2cccc3c2O[C@H](CNC(=O)c2ccc(OCCN(C)C)cc2)CO3)n1` [Example 40, 4-(2-Dimethylamino-ethoxy)-N-[(R)-8-(6-methoxy-pyridin-2-yl)-2,3-dihydro-benzo[1,4]dioxin-2-ylmethyl]-benzamide] were 52 µM, 12 µM and 58 Response Units.
`COc1nc(-c2cccc3c2OCCO3)ccc1Nc1cccc(CN2CCOCC2)c1` [Example 61, [6-(2,3-Dihydro-benzo[1,4]dioxin-5-yl)-2-methoxy-pyridin-3-yl]-(3-morpholin-4-ylmethyl-phenyl)-amine]: the IC50 was 20.1 µM in assay [1] and 12.2 µM in assay [2]. Further, in assay [3], the “SPR Response Units” value came to 61 Response Units.
Taken in the same sequence, the figures for `CN(C)Cc1cccc(CN2CCN(c3cccc4c3OCCO4)CC2)c1` [Example 157, {3-[4-(2,3-Dihydro-benzo[1,4]dioxin-5-yl)-piperazin-1-ylmethyl]-benzyl}-dimethyl-amine] were > 150 µM, > 150 µM and 7 Response Units.
Taken in the same sequence, the figures for `COc1cc(-c2cccc3c2OCCO3)ccc1Nc1ccc(CNCC2COCCN2)cc1` (stereo not drawn) [Example 132, [4-(2,3-Dihydro-benzo[1,4]dioxin-5-yl)-2-methoxy-phenyl]-(4-{[(morpholin-3-ylmethyl)-amino]-methyl}-phenyl)-amine] were 12.7 µM, 11 µM and 204 Response Units.
Taken in the same sequence, the figures for `COc1nc(-c2cccc3c2OCCO3)ccc1Nc1cccc(CNc2cccnc2)c1` [Example 143] were 17 µM, 6.1 µM and 67 Response Units.
As for `COc1nc(-c2cccc3c2OCCO3)ccc1Nc1ccc(CN(C)C)cn1` [Example 57, [6-(2,3-Dihydro-benzo[1,4]dioxin-5-yl)-2-methoxy-pyridin-3-yl]-(5-dimethylaminomethyl-pyridin-2-yl)-amine], the IC50 in assay [1] stood at 29 µM; in assay [2], 20.2 µM. Further, in assay [3], the “SPR Response Units” value is 77 Response Units.
For the molecule `COc1nc(-c2cccc3c2OCCO3)ccc1Nc1cccc(C(=O)NCC2CCN(C(C)=O)CC2)c1` [Example 167, N-(1-Acetyl-piperidin-4-ylmethyl)-3-[6-(2,3-dihydro-benzo[1,4]dioxin-5-yl)-2-methoxy-pyridin-3-ylamino]-benzamide], the results for the IC50 in assay [1] and in assay [2] were 15.8 µM and 3.5 µM, respectively. The “SPR Response Units” value in assay [3] was found to be 73 Response Units.
Taken in the same sequence, the figures for `COc1nc(-c2cccc3c2OCCO3)ccc1Nc1ccc(CNCC2CCN(C(=O)OC(C)(C)C)CC2)cc1` [Example 171, 4-({4-[6-(2,3-Dihydro-benzo[1,4]dioxin-5-yl)-2-methoxy-pyridin-3-ylamino]-benzylamino}-methyl)-piperidine-1-carboxylic acid tert-butyl ester] were 6.6 µM, 0.14 µM and 30 Response Units.
Taken in the same sequence, the figures for `COc1nc(-c2cccc3c2OCCO3)ccc1Nc1cccc(CC(=O)NC2CCNC(=O)C2)c1` (stereo not drawn) [Example 205, 2-{3-[6-(2,3-Dihydro-benzo[1,4]dioxin-5-yl)-2-methoxy-pyridin-3-ylamino]-phenyl}-N-(2-oxo-piperidin-4-yl)-acetamide] were 12.2 µM, 51.6 µM and 142 Response Units.
Taken in the same sequence, the figures for `COc1cc(NC(=O)N[C@@H]2CC[C@H](NC(=O)OCc3ccccc3)C2)cc(-c2cccc3c2OC(CNC(=O)C2CCOCC2)CO3)n1` (stereo partly drawn) [Example 100, ((1S,3R)-3-{3-[2-Methoxy-6-(3-{[(tetrahydro-pyran-4-carbonyl)-amino]-methyl}-2,3-dihydro-benzo[1,4]dioxin-5-yl)-pyridin-4-yl]-ureido}-cyclopentyl)-carbamic acid benzyl ester] were 28 µM, 5 µM and 97 Response Units.
